Converted amounts (≈) assume the structure as drawn. Where two headings read alike, the source gives them in different places.
Key:
[1] = test system: Plasmodium falciparum K1; assay: microbe, parasite or virus in culture; assay type: cell-based; details: for EC50: Plasmodium falciparum, K1, read-out: EC50 P. falc.
Description: (§1) V. Design and Results of the in vitro & in vivo Studies.
A. Drug inhibition of in vitro cultured P. falciparum parasite:2 All in vitro assays were carried out twice independently. In vitro activity against the erythrocytic stages of P. falciparum was determined by using a 3H-hypoxanthine incorporation assay,5-6 using the […]
were dissolved in DMSO at 10 mg/mL and added to parasite cultures incubated in RPMI […]
haematocrit (0.3% parasitaemia). Serial doubling dilutions of each drug were prepared in […]
After 48 h, 50 µL of 3H-hypoxanthine (= 0.5 µCi) was added to each well of the plate. The plates were incubated for an additional 24 h under the same conditions. The plates were then harvested with a Betaplate cell harvester (Wallac, Zurich, Switzerland), and the red blood cells were transferred onto a glass fiber filter and then washed with distilled water. The dried filters were inserted into a plastic foil with 10 mL of scintillation fluid and were counted in a Betaplate™ liquid scintillation counter (Wallac, Zurich, […]

[2] = test system: L6 cells; assay: In vitro cytotoxicity assay in L6 cells (Alamar Blue); assay type: cell-based; details: Rattus norvegicus, mean of two independent assays, read-out: EC50 L6 cells
Description: as §1
A. Drug inhibition of in vitro cultured P. falciparum parasite:2 All in vitro assays were carried out twice independently. In vitro activity against the erythrocytic stages of P. […]
B. In vitro cytotoxicity assay:2 Assays were performed in 96-well microtiter plates, each […]
mM) and 10% fetal bovine serum, and 4 x 10^4 L-6 cells (a primary cell line derived from rat skeletal myoblasts). Serial drug dilutions of seven 3-fold dilution steps covering a range […]
After 72 h of incubation the plates were inspected […]
of Alamar Blue was then added to each well and the plates incubated for another 2 h.
Then the plates were read with a Spectramax Gemini XS microplate fluorometer (Molecular Devices Cooperation, Sunnyvale, CA, USA) using an excitation wave length of […]
Data were analysed using the microplate reader software Softmax Pro (Molecular Devices Cooperation, Sunnyvale, CA, USA).

[3] = Aqueous solubility estimated by nephelometry; assay type: physicochemical; details: kinetic from dmso stock
Description: III. Physicochemical Evaluation […]
Solubility Estimation: Aqueous solubility was estimated by nephelometry.
Compound in DMSO was spiked into either water, pH 6.5 phosphate buffer or 0.01N HCl
(approx. pH 2.0) with the final DMSO concentration being 1%. Samples were then
analyzed by Nephelometry to determine the solubility range as described previously.1

[4] = test system: green fluorescent protein (GFP)-transfected Plasmodium berghei ANKA; assay type: in vivo; details: for [%] Reduction parasitaemia: mice, 10 % DMSO in water; for Survival: in vivo
Description: In vivo efficacy studies: The protocols are described in the Supporting Information. In vivo efficacy studies in mice were conducted at the Swiss Tropical & Public Health Institute (Basel, Switzerland) according to the rules and regulations for the protection of animal rights (“Tierschutzverordnung”) of the Swiss “Bundesamt für Veterinärwesen”. They were approved by the veterinary office of Canton Basel-Stadt, Switzerland.
C. In vivo antimalarial efficacy studies (4 days treatment).2
In vivo antimalarial activity was assessed basically as previously described. Groups of […]
erythrocytes on day 0 with GFP-transfected P. berghei strain ANKA. .Unless otherwise indicated compounds were formulated in 100% DMSO, diluted 10-fold in distilled water and administered intraperitoneally or orally in a volume of 10 mL kg-1 on four consecutive days (4, 24, 48 and 72 h post infection). Parasitemia was determined on day 4 post infection (24 h after last treatment) by FACS analysis. Activity was calculated as the difference between the mean per cent parasitaemia for the control (n=5 mice) and treated groups expressed as a per cent relative to the control group. The survival time in days was also recorded up to 30 days after infection. A compound was considered curative if the animal survived to day 30 after infection with no detectable parasites. All protocols and procedures used in the current study were reviewed and approved by the local veterinary authorities of the Canton Basel-Stadt.

[5] = test system: Plasmodium berghei; parameters: method as in PMID 23517371; details: P. berghei mouse model; dosed intraperitoneally; cited from earlier work
[6] = Table 1, A-ring variants, mammalian L6 cells
[7] = Table 1, water, nephelometry, 1% DMSO, read-out: Solubility water
[8] = Table 2, C-ring variants, L6 cells
[9] = Table 2, water, read-out: Solubility water
[10] = aqueous buffer, pH 6.5 phosphate buffer, nephelometry, 1% DMSO, read-out: Solubility pH 6.5
[11] = simulated gastric fluid, pH 2.0 (0.01N HCl), nephelometry, 1% DMSO, read-out: Solubility pH 2.0

Compound	EC50 [1]	EC50 [2, 6]	solubility [3, 7]	melting point	EC50 [2, 8]	solubility [3, 9]	other results
CCOC(=O)C1=C(C)N/C(=C/c2cc(C)n(C3CCN(Cc4ccc(F)cc4C(F)(F)F)CC3)c2C)C1=O [Compound 44]	0.4 nM	1200 nM	> 125 µM	145 to 148 °C			EC50 (P. falciparum K1) ([1]; values in nM): sub-nanomolar
CCOC(=O)C1=C(C)N/C(=C/c2cc(C)n(C3CCN(Cc4ccc(C(F)(F)F)nc4)CC3)c2C)C1=O [Compound 43]	4 nM	49000 nM	> 125 µM				[%] Reduction parasitaemia ([4]; 50 mg kg^−1 day^−1 ip): 10.0%; activity in vivo (in words) ([4]; 50 mg/kg ip and 100 mg/kg po): failed to show significant activity in vivo; [%] Reduction parasitaemia ([4]; 100 mg kg^−1 day^−1 po): 0.0%; Survival ([4]; ip): 4 days; Survival ([4]; po): 4 days
CCOC(=O)C1=C(C)N/C(=C/c2cc(C)n(C3CCN(C(C)c4ccccc4C(F)(F)F)CC3)c2C)C1=O (stereo not shown) [Compound 36]	1 nM	3000 nM	> 125 µM	138 to 142 °C			
Cc1cc(/C=C2/Nc3ccn(Cc4ccncc4)c(=O)c3C2=O)c(C)n1-c1ccccc1C(F)(F)F [Compound 64]	77 nM			215 to 240 °C	38000 nM	> 125 µM	
CCn1ccc2c(c1=O)C(=O)/C(=C\c1cc(C)n(-c3ccccc3C(F)(F)F)c1C)N2 [Compound 58]	21 nM			204 to 205 °C	36000 nM	> 125 µM	
Cc1cc(/C=C2/Nc3ccn(C)c(=O)c3C2=O)c(C)n1-c1ccccc1C(F)(F)F [Compound 57]	14 nM				29000 nM	> 125 µM	[%] Reduction parasitaemia ([4]; 50 mg kg^−1 day^−1 ip): 99.9%; [%] Reduction parasitaemia ([4]; 100 mg kg^−1 day^−1 po): 50.5%; Survival ([4]; po): 8 days
CCOC(=O)C1=C(C)N/C(=C/c2cc(C)n(C3CCN(Cc4cocn4)CC3)c2C)C1=O [Compound 48]	18 nM	160 nM	> 125 µM	180 to 182 °C			
CCOC(=O)C1=C(C)N/C(=C/c2cc(C)n(C3CCN(Cc4ccccc4)CC3)c2C)C1=O [Compound 17, (E)-Ethyl 5-((1-(1-benzylpiperidin-4-yl)-2,5-dimethyl-1H-pyrrol-3-yl)methylene)-2-methyl-4-oxo-4,5-dihydro-1H-pyrrole-3-carboxylate]	35 nM	20000 nM	> 125 µM	150 to 155 °C			solubility [3, 10]: 14 to 28 µM (≈ 6.27 to 12.5 µg/mL); solubility [3, 11]: 56 to 110 µM (≈ 25.1 to 49.2 µg/mL)
CCOC(=O)C1=C(C)N/C(=C/c2cc(C)n(-c3ccccc3C(F)(F)F)c2C)C1=O [TDR32750]							depression of parasitaemia [5]: > 99%
CCOC(=O)C1=C(C)N/C(=C/c2cc(C)n(C3CCN(CC4CCCCC4)CC3)c2C)C1=O [Compound 40]	16 nM	13000 nM	> 125 µM	184 to 186 °C			
Cc1cc(/C=C2/Nc3ccn(Cc4ccc(C(F)(F)F)cc4)c(=O)c3C2=O)c(C)n1-c1ccccc1C(F)(F)F [Compound 63]	46 nM			235 to 240 °C	54000 nM	89 µM (≈ 49.6 µg/mL)	
Cc1cc(/C=C2/Nc3cc[nH]c(=O)c3C2=O)c(C)n1-c1ccccc1C(F)(F)F [Compound 56]	47 nM				54000 nM	> 125 µM	[%] Reduction parasitaemia ([4]; 50 mg kg^−1 day^−1 ip): 21.8%; [%] Reduction parasitaemia ([4]; 100 mg kg^−1 day^−1 po): 13.6%; Survival ([4]; ip): 4 days; Survival ([4]; po): 4 days
CCOC(=O)C1=C(C)N/C(=C/c2cc(C)n(C3CCN(CC)CC3)c2C)C1=O [Compound 20]	2400 nM	7600 nM		140 to 145 °C			solubility [3, 10]: > 250 µM; solubility [3, 11]: > 250 µM
CCOC(=O)C1=C(C)N/C(=C/c2cc(C)n(C3CCN(Cc4ccc(-c5noc(C)n5)cc4)CC3)c2C)C1=O [Compound 51]	1 nM	11000 nM	> 125 µM	195 to 200 °C			
CCOC(=O)C1=C(C)N/C(=C/c2cc(C)n(C3CCN(c4ccc(C(F)(F)F)cc4)CC3)c2C)C1=O [Compound 30]	24 nM	10000 nM	> 125 µM	153 to 158 °C			
